From patent publication US7202046B2, “Use of a fluorescent protein for detecting interaction between a target protein and its ligand” (priority 1997, dated 2007)
Several values for one entry are separate records, joined by “and”; a condition that tells them apart may be missing. Equal entries are not always repeated. Where two headings read alike, the source gives them in different places.

What was measured:
NK2R-RF1 receptor = assay: Fluorescence energy transfer between fluorescent ligand and NK2R-RF1 on HEK293 cells in suspension; assay type: binding, rat; conditions: for detection of receptor-fluorescent ligand interaction signal (energy transfer): 100 nM fluorescent ligand, real time; for detection of receptor-fluorescent ligand interaction signal (energy transfer) / inhibition of real-time energy transfer between 100 nM NKA BO I and NK2R-RF1 / Kd: emission 510 nm; for reversal of the energy transfer signal by excess non-labeled ligand, at equilibrium: 1–10 μM non-labeled ligand after 100 nM NKA BO I; for inhibition of real-time energy transfer between 100 nM NKA BO I and NK2R-RF1: 20 μM non-fluorescent ligand; for inhibition of real-time energy transfer between 100 nM NKA BO I and NK2R-RF1 / Kd: 10^6 cells/ml; for Kd: 0 to 256 nM ligand, read-out: affinity value KD from amplitude of the fluorescence signal
Experimental: The fluorescence experiments are carried out in a 1 ml tank fitted with a magnetic stirring system and placed in a Fluorolog spectrofluorimeter (SPEX) equipped with a 450 W xenon lamp (Osram) and Spex 1680 0.22 m (excitation) and Spex 1681 0.22 m (emission) monochromators. The cells or the membrane fragments are suspended in physiological buffer: 10 mM Hepes, 137.5 mM NaCl, 1.25 mM MgCl2, 1.25 mM CaCl2, 6 mM KCl, 5.6 mM glucose, 0.4 mM NaH2PO4, 0.1% (w/v) BSA, pH 7.4.
The HEK293 cells expressing the NK2R-RF1 are suspended at a concentration of 1,000,000 cells/ml in Hepes physiological buffer (10 mM Hepes, 137.5 mM NaCl, 1.25 mM MgCl2, 1.25 mM CaCl2, 6 mM KCl, 5.6 mM glucose, 0.4 mM NaH2PO4, 0.1% (w/v) BSA, pH 7,4). The cells are then placed in a fluorescence tank at a concentration which can range from 100,000 to 1,000,000 cells/ml. […] The emission spectrum of the solution is again recorded. […] The appearance of a peak at 550–560 nm during the addition of the fluorescent ligand and a reduction in its intensity during the addition of non-labeled ligand are also detected. […] The signal is reversible by means of addition of a pharmacological agent capable of inhibiting the interaction between the ligand and its receptor.
The same recordings can be made in real time. For this, the excitation wavelength is set at 460 nm and the emission wavelength is set at 510 nm. […] The final value of the fluorescence intensity can be higher than the initial value when the absorption of the fluorescent ligand contributes to the signal.

wild-type NK2R receptor [1] = molecular target: T1, wild-type NK2R receptor (Rattus norvegicus, UniProt P16610); assay: Release of intracellular calcium (FURA 2), cells expressing pCEP4-NK2R WT; assay type: cell-based; conditions: for inhibition of the NKA-elicited calcium response: antagonist (5 μM cyclopeptide) then 10 nM NKA
T1 construct: expressed in transfected cells; host or cells: HEK 293 cells, construct pCEP4-NK2R
T1 sequence (P16610 1-390): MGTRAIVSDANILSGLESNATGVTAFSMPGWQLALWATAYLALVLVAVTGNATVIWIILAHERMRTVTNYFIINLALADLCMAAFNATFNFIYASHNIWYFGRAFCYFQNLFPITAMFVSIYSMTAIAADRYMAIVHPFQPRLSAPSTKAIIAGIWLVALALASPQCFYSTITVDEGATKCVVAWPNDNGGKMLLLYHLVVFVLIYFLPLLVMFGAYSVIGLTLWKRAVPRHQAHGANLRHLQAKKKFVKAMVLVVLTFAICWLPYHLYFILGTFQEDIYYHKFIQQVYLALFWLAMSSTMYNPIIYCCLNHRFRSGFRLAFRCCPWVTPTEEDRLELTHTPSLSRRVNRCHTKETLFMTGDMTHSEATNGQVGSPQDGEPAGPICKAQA
Experimental: (§1) The fluorescent calcium-chelating agent, FURA 2 acetyl methyl ester (Molecular Probes), dissolved in DMSO is diluted to a concentration of 3 μM in 10 mM Hepes, 137.5 mM NaCl, 1.25 mM MgCl2, 1.25 mM CaCl2, 6 mM KCl, 5.6 mM glucose, 0.4 mM NaH2PO4, 0.1% (w/v) BSA, pH 7.4 buffer. The cell culture medium is aspirated and then replaced with 7 to 10 ml of FURA 2 AM solution. The cells are placed in the CO2 incubator for 45 min. The medium is then aspirated, replaced with FURA-free Hepes buffer and the cells are replaced in the CO2 incubator for a further 15 min. The buffer is aspirated and the cells are then collected after they have been detached from the dish with a 5 mM EDTA, PBS solution for 5 min. After centrifugation at 1000×g for 5 min., the cell pellet obtained is re-suspended at a rate of 1×10^6 cells/ml in Hepes buffer.
(§2) The calcium-release measurements are carried out at 37° C., in a spectrofluorimetiy tank containing a magnetic stirrer bar. The excitation wavelength is set at […] and the emission wavelength is set at 510 nm.

NK2R-RF1 = assay: Release of intracellular calcium (FURA 2), cells expressing pCEP4-NK2R-RF1; assay type: cell-based, rat; conditions: for inhibition of the NKA-elicited calcium response: antagonist (5 μM cyclopeptide) then 10 nM NKA
Experimental: as §1, §2

[2] = system: fluorescent receptor NK2R-RF1; assay: Displacement of 3H SR 48968 binding (competition experiment), HEK 293 cells expressing NK2R-RF1; set-up: species or system rat; conditions: read-out: KI, displacement of 3H SR 48968, 1 nM 3H SR 48968, 25,000 cells, 4° C.
Experimental: Each 500 μl sample contains 25,000 cells, 1 nM 3HSR 48968 and a non-radioactive ligand at various concentrations (from 1 nM to 10 μM). The incubation is carried out for one hour at 4° C. Filtration is carried out at the end of incubation, as described in 3b).

[3] = system: non-transfected HEK 293 cells; assay: Release of intracellular calcium (FURA 2), non-transfected cells; assay type: cell-based
Experimental: as §1, §2

wild-type NK2R receptor [4] = molecular target: T1, wild-type NK2R receptor; assay: Saturation binding of 3H SR 48968 to whole cells expressing wild-type NK2R; conditions: two experiments
Experimental: (§3) After incubation for 30 min. at room temperature, the samples are filtered through GF/C filters (Whatmann) pre-treated in 1% powdered milk in PBS (2.7 mM KCl, 1.47 mM KH2PO4, […], 8.06 mM Na2HPO4), rinsed twice with PBS (4 ml) and then counted in a scintillation cocktail.
(§4) Each 500 μl sample contains 25,000 cells, and the fraction of bound ligand is less than 10% of the amount added to each tube. Filtration is carried out at the end of incubation, as described above.

[5] = molecular target: T2, fluorescent receptor NK2R-RF1 (Rattus norvegicus, UniProt P16610); assay: Saturation binding of 3H SR 48968 to whole cells expressing NK2R-RF1 (EGFP fused at N-terminal); conditions: two experiments
T2 construct: fused on or other part: EGFP (from pEGFP C3-1) fused at the receptor's N-terminus, preceded by the signal peptide of the hen alpha7 nicotinic receptor subunit; Both are tag or targeting parts and are not part of the key
Experimental: as §3, §4

[6] = saturation curve, 25,000 cells, 4° C., 1 h 30 min, read-out: affinity value (KD)

## NKA TR: neurokinin A labeled with sulforhodamine 101 acid chloride (Texas Red)
NK2R-RF1 receptor
  detection of receptor-fluorescent ligand interaction signal (energy transfer): detection of an NK2R-RF1 receptor-fluorescent ligand interaction signal

## NKA Eos: eosin derivative of NKA (eosin-5-iodoacetamide)
NK2R-RF1 receptor
  detection of receptor-fluorescent ligand interaction signal (energy transfer): detection of an NK2R-RF1 receptor-fluorescent ligand interaction signal

## CC(=O)NC1(c2ccccc2)CCN(CC[C@H](CN(C)C(=O)c2ccccc2)c2ccc(Cl)c(Cl)c2)CC1 [SR 48968]
NK2R-RF1 receptor
  reversal of the energy transfer signal by excess non-labeled ligand, at equilibrium: return to the initial fluorescence
wild-type NK2R receptor [1]
  inhibition of the NKA-elicited calcium response: inhibited
NK2R-RF1
  inhibition of the NKA-elicited calcium response: inhibited

## neurokinin A [NKA]
[2]
  Ki: 2.1 nM
NK2R-RF1 receptor
  inhibition of real-time energy transfer between 100 nM NKA BO I and NK2R-RF1: inhibition
  reversal of the energy transfer signal by excess non-labeled ligand, at equilibrium: return to the initial fluorescence
NK2R-RF1 receptor; cells expressing NK2R-RF1, no fluorescent ligand
  effect of non-fluorescent ligand alone on the fluorescence emission spectrum: has no effect on the fluorescence emission spectrum
wild-type NK2R receptor [1]; 10 nM NKA, 37° C.
  calcium release response elicited: elicited
NK2R-RF1; 10 nM NKA, 37° C.
  calcium release response elicited: elicited
[3]
  calcium release response: does not elicit any response

## cyclo(-Gln-Trp-Phe-Gly-Leu-Met) (QWFGLM; cyclic; printed: Gln-Trp-Phe-Gly-Leu-Met) [NK2R antagonist cyclopeptide (Bachem)]
NK2R-RF1 receptor
  inhibition of real-time energy transfer between 100 nM NKA BO I and NK2R-RF1: inhibition
  reversal of the energy transfer signal by excess non-labeled ligand, at equilibrium: return to the initial fluorescence
wild-type NK2R receptor [1]
  inhibition of the NKA-elicited calcium response: inhibited
NK2R-RF1
  inhibition of the NKA-elicited calcium response: inhibited

## CC(=O)NC1(c2ccccc2)CCN(CC[C@H](CN(C)C(=O)c2ccccc2)c2ccc(Cl)c(Cl)c2)CC1 [^3H SR 48968]
wild-type NK2R receptor [4]; [6]
  Kd: 1.05 nM and 0.78 nM
wild-type NK2R receptor [4]; saturation curve
  maximum binding value (B max): 0.1 pMol/25,000 cells
[5]; [6]
  Kd: 0.8 nM and 0.92 nM
[5]; saturation curve
  maximum binding (B max) value: 0.075 pMol/25,000 cells and 0.088 pMol/25,000 cells

## CSCC[C@H](NC(=O)[C@H](CC(C)C)NC(=O)CNC(=O)[C@@H](NC(=O)[C@H](Cc1ccccc1)NC(=O)[C@H](CO)NC(=O)[C@H](CC(=O)O)NC(=O)[C@@H](NC(=O)[C@H](CCCCN)NC(=O)[C@H](Cc1c[nH]cn1)NCC(=O)NCCNC(=O)CCc1ccc2n1[B-](F)(F)[N+]1=C(c3ccccc3)C=C(c3ccccc3)C1=C2)[C@@H](C)O)C(C)C)C(N)=O [NKA BO I]
[2]
  Ki: 16 nM
[2]; listed as NKA-BO I
  Ki: 16.1 nM
NK2R-RF1 receptor; listed as NKA-BO I
  Kd: 24 nM
NK2R-RF1 receptor
  Kd: 20 to 30 nM
NK2R-RF1 receptor; 100 nM ligand, excitation 460 nm
  change of EGFP fluorescence (510 nm) on addition of fluorescent ligand, at equilibrium: extinction of the fluorescence of EGFP
